The text below walks through data of US12662494B2, “Optically active bridged piperidine derivative” (Sumitomo Pharma Co., Ltd., priority 2018, dated 2026).

SMILES strings stand for the structures.

The target in experiment [1] is T1, Menin-MLL binding (His-Menin1-615 and MLL1-172-FLAG) (Homo sapiens, UniProt O00255).
T1 construct: Menin1-615 wherein 6× His tag and HA tag are inserted in the N-terminus; HA (N); myc (C)
T1 sequence (O00255 1-615 isoform O00255-1): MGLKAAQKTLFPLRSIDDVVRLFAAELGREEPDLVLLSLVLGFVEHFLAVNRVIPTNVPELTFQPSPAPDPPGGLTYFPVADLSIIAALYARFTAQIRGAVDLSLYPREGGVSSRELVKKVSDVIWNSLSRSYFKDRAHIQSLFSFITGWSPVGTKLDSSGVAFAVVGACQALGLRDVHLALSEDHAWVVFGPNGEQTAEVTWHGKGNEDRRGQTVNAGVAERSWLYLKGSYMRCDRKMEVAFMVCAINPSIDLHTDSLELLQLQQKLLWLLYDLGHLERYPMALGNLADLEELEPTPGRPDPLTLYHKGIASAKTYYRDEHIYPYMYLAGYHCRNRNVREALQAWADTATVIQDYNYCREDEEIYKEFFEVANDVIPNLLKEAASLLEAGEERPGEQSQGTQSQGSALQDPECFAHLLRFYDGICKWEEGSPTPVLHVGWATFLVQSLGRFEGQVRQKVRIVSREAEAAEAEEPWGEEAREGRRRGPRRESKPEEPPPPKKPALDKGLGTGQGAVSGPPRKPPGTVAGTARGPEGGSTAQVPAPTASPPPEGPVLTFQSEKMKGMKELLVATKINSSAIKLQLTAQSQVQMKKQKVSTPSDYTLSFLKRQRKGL
The experiment can be described thus: Test 1: inhibition of the menin-MLL binding (HTRF). The note with it: for IC50: His-Menin1-615 30 nmol/L, MLL1-172-FLAG 50 nmol/L. As to the method:
Test 1: Test for Evaluating the Inhibition of the Menin-MLL Binding
Menin1-615 wherein 6× His tag and HA tag are inserted in the N-terminus, and myc tag is inserted in the C-terminus (hereinafter, referred to as His-Menin1-615), was diluted with an assay buffer (25 mmol/L HEPES, 150 mmol/L NaCl, 1 mmol/L dithiothreitol, 0.5% (w/v) Tween 80, 0.3% (w/v) BSA, 0.3% (w/v) skim milk) to adjust the final concentration to 30 nmol/L. The test compounds were also diluted with the assay buffer to adjust each concentration of the test compounds to 0.005 to 5 μmol/L. The prepared His-Menin1-615 and test compounds were added to a light-shielding 384-well low-volume plate (Corning, #4514) in 2 μL/well and […], respectively, and the plate was covered with a lid for light-shielding (Corning, #3935), and incubated at room temperature for 3 hours. After the incubation, MLL1-172 wherein FLAG tag is inserted in the C-terminus (MLL1-172-FLAG), was separately diluted with the assay buffer to adjust the final concentration to 50 nmol/L. The prepared MLL1-172-FLAG was added to the above plate in 2 μL/well, and the plate was covered with a lid for light-shielding and incubated at room temperature for an hour.
Then, anti-6HIS-d2 antibody (cisbio, 61HISDLA) and anti-FLAGM2-K antibody (cisbio, 61FG2KLA) were diluted with an antibody dilution buffer (50 mmol/L Tris, 150 mmol/L NaCl, 800 mmol/L KF, pH 7.4) to adjust the final concentration to 1.4 μg/mL to prepare an antibody mixture. The prepared antibody mixture was added to the above plate in 10 μL/well, and the plate was covered with a lid and incubated at 4° C. for 17 to 24 hours. After the incubation, the signal was detected with RUBYstar (BMG LABTECH).

For another experiment, the system named is RS4; 11 cells. The experiment can be described thus: Test 2: inhibition of cell proliferation, RS4;11. It counts as cell-based. To be noted: for IC50: Homo sapiens, 168 h, RS4;11 cells, 7 days, PrestoBlue cell viability; for cell proliferation inhibition activity, good (in words): summary of Test 2 table, RS4;11 and MOLM-13. As to the method:
(§1) Test 2: Test for Evaluating the Inhibition of Cell Proliferation
(§2) RS4; 11 cells were obtained from American Type Culture Collection (ATCC). The cells were cultured at 37° C. in the presence of 5% CO2 in RPMI 1640 medium containing 10% fetal bovine serum and 1% penicillin/streptomycin. MOLM-13 cells were separately obtained from DSMZ (Deutsche Sammlung von Mikroorganismen und Zellkulturen GmbH). The cells were cultured at 37° C. in the presence of 5% CO2 in RPMI 1640 medium containing […] and 1% penicillin/streptomycin.
(§3) The cells were plated to a 96-well plate in 2000 cells/well, each test compound was added thereto to adjust the final concentration of DMSO to 0.1% of DMSO, and the cells were cultured for 7 days. After the cultivation, the cell viability was calculated with PrestoBlue™ Cell Viability Reagent (Invitrogen, A13261). The IC50 value was calculated from a survival curve, that corresponds to the concentration of the test compound at which the cell proliferation inhibition rate is 50%.

The next experiment concerns MOLM-13 cells. The experiment can be described thus: Test 2: inhibition of cell proliferation, MOLM-13. It counts as cell-based. The note with it: Homo sapiens, 168 h, 7 days, PrestoBlue cell viability. As to the method:
as §1, §2, §3

A further experiment has as its system MEIS1. Put plainly: Test 3: inhibition of mRNA transcription, MEIS1 in MV4;11 cells. It counts as cell-based. The note with it: for mRNA at 1 μM (% control) MEIS1: MV4;11 cells, 20 to 24 hours, fitted with GAPDH; for mRNA transcription inhibition activity (in words): summary of Test 3 table, MEIS1 and HOXA9, MV4;11 cells, 1 μM. As to the method: (§4) Test 3: Test for the Inhibition of mRNA Transcription with Test Compounds
(§5) MV4; 11 cells were obtained from American Type Culture Collection (ATCC). The cells were cultured at 37° C. in the presence of 5% CO2 in RPMI 1640 medium containing 10% fetal bovine serum and 1% penicillin/streptomycin. To the MV4; 11 cells was added each test compound to adjust the final concentration to 1 μmol/L, and the cells were cultured at 37° C. in the presence of 5% CO2 for 20 to 24 hours. After the incubation, the total RNA was extracted from the cells with RNeasy™ Mini Kit (QIAGEN, 74106), and CDNA was synthesized with Superscript™ VILO™ CDNA Synthesis Kit (Invitrogen, #11754250). By using TaqMan™ Gene Expression Master Mix (Applied Biosystems, 4369016) and TaqMan™ probe (Applied Biosystems), the expression level of mRNA was quantified from the obtained cDNA with 7900HT (Applied Biosystems). The mRNA expression level of each obtained gene was fitted with the expression level of mRNA of GAPDH.

Another experiment has as its system HOXA9. Put plainly: Test 3: inhibition of mRNA transcription, HOXA9 in MV4;11 cells. It counts as cell-based. To be noted: 20 to 24 hours, fitted with GAPDH. How it is done: as §4, §5

`O=C([C@H]1N[C@H]2CC[C@@H]1[C@@H](F)[C@H]2CC1CC1)N1CC2(C1)CN(c1c(C(F)(F)F)cnc3sc(CC(F)(F)F)cc13)C2` [Example 13, [(1S,3S,4S,5S,6S)-6-(cyclopropylmethyl)-5-fluoro-2-azabicyclo[2.2.2]octan-3-yl]{6-[2-(2,2,2-trifluoroethyl)-5-(trifluoromethyl)thieno[2,3-b]pyridin-4-yl]-2,6-diazaspiro[3.3]heptan-2-yl}methanone] had an IC50 in experiment [1] of 54.2 nM. Further, in the experiment on RS4; 11 cells, the IC50 came to 440 nM and the “cell proliferation inhibition activity, good (in words)” value is on record as “good cell proliferation inhibition activity”. Moreover, the IC50 in the experiment on MOLM-13 cells amounted to 690 nM. In the experiment on MEIS1, the “mRNA at 1 μM (% control) MEIS1” value was 39.6 % control and the “mRNA transcription inhibition activity (in words)” value is reported as “mRNA transcription inhibition activity”. In addition, the “mRNA at 1 μM (% control) HOXA9” value with HOXA9 is on record as 45.4 % control.

In the case of `C=C1C[C@@H]2CC[C@H]1[C@@H](C(=O)N1CC3(C1)CN(c1c(C(F)(F)F)cnc4sc(CC(F)(F)F)cc14)C3)N2` [Example 5, [(1S,3S,4R)-5-methylidene-2-azabicyclo[2.2.2]octan-3-yl]{6-[2-(2,2,2-trifluoroethyl)-5-(trifluoromethyl)thieno[2,3-b]pyridin-4-yl]-2,6-diazaspiro[3.3]heptan-2-yl}methanone], the IC50 in experiment [1] stood at 92.7 nM; in the experiment with RS4; 11 cells, 200 nM; in the experiment with MOLM-13 cells it was 280 nM. Also, the “mRNA at 1 μM (% control) MEIS1” value with MEIS1 is on record as 32.3 % control. Further, in the experiment with HOXA9, the “mRNA at 1 μM (% control) HOXA9” value is recorded as 44.3 % control.

For `N#Cc1cnc2sc(CC(F)(F)F)cc2c1N1CC2(CN(C(=O)[C@H]3N[C@H]4CC[C@@H]3C[C@@H]4CC3CC3)C2)C1` [Example 2, 4-{6-[(1S,3S,4R,6S)-6-(cyclopropylmethyl)-2-azabicyclo[2.2.2]octane-3-carbonyl]-2,6-diazaspiro[3.3]heptan-2-yl}-2-(2,2,2-trifluoroethyl)thieno[2,3-b]pyridine-5-carbonitrile], the IC50 in experiment [1] amounted to 7 nM; in the experiment on RS4; 11 cells it was 190 nM; in the experiment with MOLM-13 cells it was 260 nM. Also, the “mRNA at 1 μM (% control) MEIS1” value in the experiment with MEIS1 is on record as 26.6 % control. Besides, the “mRNA at 1 μM (% control) HOXA9” value with HOXA9 was found to be 48.2 % control.

Turning to `O=C([C@H]1N[C@H]2CC[C@@H]1C[C@H]2CC1CC1)N1CC2(C1)CN(c1c(C(F)(F)F)cnc3sc(CC(F)(F)F)cc13)C2` [Example 3, [(1S,3S,4R,6R)-6-(cyclopropylmethyl)-2-azabicyclo[2.2.2]octan-3-yl]{6-[2-(2,2,2-trifluoroethyl)-5-(trifluoromethyl)thieno[2,3-b]pyridin-4-yl]-2,6-diazaspiro[3.3]heptan-2-yl}methanone], the IC50 in experiment [1] came out at 88.6 nM; in the experiment with RS4; 11 cells, 590 nM; in the experiment with MOLM-13 cells it was 800 nM. Besides, the “mRNA at 1 μM (% control) MEIS1” value in the experiment on MEIS1 worked out at 52.6 % control. Also, the “mRNA at 1 μM (% control) HOXA9” value with HOXA9 amounted to 54.0 % control.

`N#Cc1cnc2sc(CC(F)(F)F)cc2c1N1CC2(CN(C(=O)[C@H]3N[C@H]4CC[C@@H]3C[C@H]4CC3CC3)C2)C1` [Example 4, 4-{6-[(1S,3S,4R,6R)-6-(cyclopropylmethyl)-2-azabicyclo[2.2.2]octane-3-carbonyl]-2,6-diazaspiro[3.3]heptan-2-yl}-2-(2,2,2-trifluoroethyl)thieno[2,3-b]pyridine-5-carbonitrile]: the IC50 in experiment [1] came to 48 nM; with RS4; 11 cells, 290 nM; with MOLM-13 cells it was 710 nM. For the same molecule, in the experiment on MEIS1, the “mRNA at 1 μM (% control) MEIS1” value was found to be 47.1 % control. Besides, the “mRNA at 1 μM (% control) HOXA9” value in the experiment with HOXA9 is 52.5 % control.

Regarding `C=C1C[C@@H]2CC[C@H]1[C@@H](C(=O)N1CC3(C1)CN(c1c(C#N)cnc4sc(CC(F)(F)F)cc14)C3)N2` [Example 6, 4-{6-[(1S,3S,4R)-5-methylidene-2-azabicyclo[2.2.2]octane-3-carbonyl]-2,6-diazaspiro[3.3]heptan-2-yl}-2-(2,2,2-trifluoroethyl)thieno[2,3-b]pyridine-5-carbonitrile], the results for the IC50 (in experiment [1]; in the experiment with RS4; 11 cells; in the experiment on MOLM-13 cells) were 9 nM, 90 nM and 200 nM, respectively. Also, in the experiment with MEIS1, the “mRNA at 1 μM (% control) MEIS1” value came out at 27.4 % control. In addition, the “mRNA at 1 μM (% control) HOXA9” value with HOXA9 came out at 45.9 % control.

On to `N#Cc1cnc2sc(CC(F)(F)F)cc2c1N1CC2(CN(C(=O)[C@H]3N[C@H]4CC[C@@H]3[C@@H](F)[C@H]4CC3CC3)C2)C1` [Example 14, 4-{6-[(1S,3S,4S,5S,6S)-6-(cyclopropylmethyl)-5-fluoro-2-azabicyclo[2.2.2]octane-3-carbonyl]-2,6-diazaspiro[3.3]heptan-2-yl}-2-(2,2,2-trifluoroethyl)thieno[2,3-b]pyridine-5-carbonitrile], for which the IC50 in experiment [1] is 21.7 nM. The “menin-MLL binding inhibition activity (in words)” value in experiment [1] (summary of Test 1 table) is recorded as “potent menin-MLL binding inhibition activity”. In the experiment with RS4; 11 cells, the IC50 was found to be 260 nM and the “cell proliferation inhibition activity, good (in words)” value was “good cell proliferation inhibition activity”. In the experiment with MOLM-13 cells, this molecule registered a half-maximal inhibitory concentration (IC50) of 550 nM. Further, in the experiment on MEIS1, the “mRNA at 1 μM (% control) MEIS1” value came out at 38.5 % control and the “mRNA transcription inhibition activity (in words)” value is reported as “mRNA transcription inhibition activity”. The “mRNA at 1 μM (% control) HOXA9” value in the experiment with HOXA9 stood at 51.4 % control.
